Experimental data taken from ChEMBL document CHEMBL1817663, “A synthetic antimicrobial peptidomimetic (LTX 109): stereochemical impact on membrane disruption” (J Med Chem, 2011).
In brackets after ≈: the same amount, converted by molar mass.

Key:
[1] = tested on: Staphylococcus aureus; test: Antibacterial activity against Staphylococcus aureus ATCC 25923; assay type: functional
[2] = tested on: Pseudomonas aeruginosa; test: Antibacterial activity against Pseudomonas aeruginosa ATCC 27853; assay type: functional
[3] = Toxicity in human erythrocytes assessed as hemolytic activity; assay type: cell-based, Erythrocyte; conditions: read-out: HD50 (the source's name)
[4] = tested on: Escherichia coli; test: Antibacterial activity against Escherichia coli ATCC 25922; assay type: functional

Structure (SMILES)	MIC [1] [µg/mL]	MIC [2] [µg/mL]	HC50 [3] [µg/mL]	MIC [4] [µg/mL]
CC(C)(C)c1cc(C(C)(C)C)c2[nH]c(C(C)(C)C)c(C[C@H](NC(=O)[C@H](N)CCCNC(=N)N)C(=O)N[C@@H](CCCNC(=N)N)C(=O)NCCc3ccccc3)c2c1	2 (≈ 2.54 µM)	10 (≈ 12.7 µM)	175	3 (≈ 3.81 µM)
CC(C)(C)c1cc(C(C)(C)C)c2[nH]c(C(C)(C)C)c(C[C@@H](NC(=O)[C@H](N)CCCNC(=N)N)C(=O)N[C@@H](CCCNC(=N)N)C(=O)NCCc3ccccc3)c2c1	4 (≈ 5.08 µM)	50 (≈ 63.4 µM)	605	10 (≈ 12.7 µM)
CC(C)(C)c1cc(C(C)(C)C)c2[nH]c(C(C)(C)C)c(C[C@H](NC(=O)[C@@H](N)CCCNC(=N)N)C(=O)N[C@H](CCCNC(=N)N)C(=O)NCCc3ccccc3)c2c1	3 (≈ 3.81 µM)	50 (≈ 63.4 µM)	535	10 (≈ 12.7 µM)
CC(C)(C)c1cc(C(C)(C)C)c2[nH]c(C(C)(C)C)c(C[C@H](NC(=O)[C@@H](N)CCCNC(=N)N)C(=O)N[C@@H](CCCNC(=N)N)C(=O)NCCc3ccccc3)c2c1 [LTX-109]	2 (≈ 2.54 µM)	8 (≈ 10.2 µM)	175	3 (≈ 3.81 µM)
CC(C)(C)c1cc(C(C)(C)C)c2[nH]c(C(C)(C)C)c(C[C@H](NC(=O)[C@H](N)CCCNC(=N)N)C(=O)N[C@H](CCCNC(=N)N)C(=O)NCCc3ccccc3)c2c1	3 (≈ 3.81 µM)	50 (≈ 63.4 µM)	600	7 (≈ 8.88 µM)
CC(C)(C)c1cc(C(C)(C)C)c2[nH]c(C(C)(C)C)c(C[C@@H](NC(=O)[C@@H](N)CCCNC(=N)N)C(=O)N[C@@H](CCCNC(=N)N)C(=O)NCCc3ccccc3)c2c1	3 (≈ 3.81 µM)	30 (≈ 38.1 µM)	510	9 (≈ 11.4 µM)
CC(C)(C)c1cc(C(C)(C)C)c2[nH]c(C(C)(C)C)c(C[C@@H](NC(=O)[C@H](N)CCCNC(=N)N)C(=O)N[C@H](CCCNC(=N)N)C(=O)NCCc3ccccc3)c2c1	3 (≈ 3.81 µM)	8 (≈ 10.2 µM)	120	3 (≈ 3.81 µM)
CC(C)(C)c1cc(C(C)(C)C)c2[nH]c(C(C)(C)C)c(C[C@@H](NC(=O)[C@@H](N)CCCNC(=N)N)C(=O)N[C@H](CCCNC(=N)N)C(=O)NCCc3ccccc3)c2c1	2 (≈ 2.54 µM)	8 (≈ 10.2 µM)	135	4 (≈ 5.08 µM)
